In patent US11026991B2, “Compositions and methods of use thereof to promote muscle growth and function” (Worlds Greatest Ingredients, LP, priority 2018, dated 2021):

Legend:
[1] = design: species or system human; conditions: in vivo
Method: Another exemplary study was done on a subject. The subject reported to the laboratory after an eight hour fast. Following and eight hour fast, the subject was given a standardized meal plan for two days prior to testing. The subject had their resting heart rate, blood pressure, body mass, height, and body measured using DEXA. Additionally, a urine sample was taken for baseline assessment of clinical safety, amino acid retention, and hydration status. A venous blood sample (10 mL) was be collected from a forearm vein prior to the subject being administrated, in a double-blind fashion a single dose of either leucine (2-gram dose), dileucine (2-gram dose) or leucine (1 grams)+dileucine (1 grams). Subsequent venous blood samples were to be collected 30, 60, 90, 120 and 240 minutes after ingestion of their assigned composition. After blood samples were taken the subject was given 250 mL of cold water to ingest. A second urine sample was taken at 240 minutes after ingestion of the composition. The methodology is shown schematically in FIG. 12.
All blood samples were processed to allow for determination of amino acid concentrations. […]
Plasma essential amino acids (threonine, methionine, lysine, histidine, valine, tryptophan, leucine, phenylalanine, isoleucine) were analyzed by LC/MS/MS and plasma dileucine was analyzed by GC/MS.

muscle protein synthesis = assay: Muscle protein synthesis from vastus lateralis biopsies (L-[ring-13C6]-phenylalanine incorporation); format: in vivo, human; conditions: 180 minutes post challenge, 2 g, versus subjects receiving leucine
Method: Another exemplary study was done to measure muscle protein synthesis. Two subjects came to the laboratory after a seven hour, overnight fast. A baseline blood sample was taken. Then a primed (2.0 μmol·kg−1), continuous infusion (0.05 μmol·kg−1·min−1) of L-[ring-13C6]-phenylalanine and L-[15N]-phenylalanine was started in one catheter.
Isotopes (from Cambridge Isotopes Inc., Andover, Mass.) were dissolved in 0.9% saline, filtered through a 0.2-μm filter, and infused using a calibrated syringe pump (from Harvard Apparatus, Holliston, Mass.). After obtaining steady-state enrichment, the L-[15N]-phenylalanine tracer infusion was stopped at t=0.
Repeated muscle biopsy sampling was done throughout the infusion trial for the determination of muscle protein synthesis (based on L-[ring-13C6]-phenylalanine incorporation) before and after the ingestion of 2 g leucine or 2 g dileucine. Biopsies (˜100 mg wet weight) were obtained from the middle region of the vastus lateralis under anesthetic (Lidocaine HCl 1%) with a 5 mm Bergstrom needle custom-modified for manual suction. A schematic representation of the experimental protocol can be found in FIG. 15.

[2] = Case study: plasma amino acids after ingestion of 2 g di-leucine (Ce) or 2 g leucine (C4); conditions: for increase in plasma lysine, times greater than the other condition: Ce over C4
Method: The subject came into the laboratory fasted prior to the testing days. […] On Day 1, they were randomized to consume 1 of the 2 conditions. Following, consumption of the fluid mixture (8 oz. water), plasma amino acids were measured at 30, 60, 90, and 120 minutes. A 72-hour washout took place followed by the 2nd condition following the same procedures.
The dosage used in this study was either 2 grams of di-leucine (condition Ce) or 2 grams of leucine (condition C4).

CC(C)C[C@H](NC(=O)[C@@H](N)CC(C)C)C(=O)O [Ce, L-Leucyl-L-leucine]
plasma dileucine levels [1]: measurable increases
myofibrillar FSR (muscle protein synthesis) (muscle protein synthesis): significantly increased
increases in total EAA concentration relative to baseline (range) ([2]; 30 and 60 mPost): 7.2% to 26.9%
increase in total EAA concentration, times greater than Condition C4 ([2]; 30 mPost): 4 ×
increase in total plasma BCAAs, times greater than Condition C4 ([2]; 30 mPost): 2.9 ×
Plasma Isoleucine Delta Change Relative to Baseline Values ([2]; 30 mPost ingestion of 2 g): -11.31 nmol/L
Plasma Isoleucine Percent Change Relative to Baseline Values ([2]; 30 mPost ingestion of 2 g): −16.0%
Plasma Lysine Delta Change Relative to Baseline Values ([2]; 30 mPost ingestion of 2 g): 39.97 nmol/L
Plasma Lysine Percent Change Relative to Baseline Values ([2]; 30 mPost ingestion of 2 g): 29.7%
Plasma Methionine Delta Change Relative to Baseline Values ([2]; 30 mPost ingestion of 2 g): 2.32 µM
Plasma Methionine Percent Change Relative to Baseline Values ([2]; 30 mPost ingestion of 2 g): 10.1%
Plasma Phenylalanine Delta Change Relative to Baseline Values ([2]; 30 mPost ingestion of 2 g): 3.55 nmol/L
Plasma Phenylalanine Percent Change Relative to Baseline Values ([2]; 30 mPost ingestion of 2 g): 6.0%
Plasma Threonine Delta Change Relative to Baseline Values ([2]; 30 mPost ingestion of 2 g): 7.09 µM
Plasma Tryptophan Delta Change Relative to Baseline Values ([2]; 30 mPost ingestion of 2 g): -0.83 nmol/L
Plasma Tryptophan Percent Change Relative to Baseline Values ([2]; 30 mPost ingestion of 2 g): −1.3%
Plasma Valine Delta Change Relative to Baseline Values ([2]; 30 mPost ingestion of 2 g): -13.31 nmol/L
Plasma Valine Percent Change Relative to Baseline Values ([2]; 30 mPost ingestion of 2 g): −3.6%
Total Plasma BCAA Delta Change Relative to Baseline Values ([2]; 30 mPost ingestion of 2 g): 213 µM
Total Plasma BCAA Percent Change Relative to Baseline Values ([2]; 30 mPost ingestion of 2 g): 35.7%
Total Plasma EAA Delta Change Relative to Baseline Values ([2]; 30 mPost ingestion of 2 g): 265.57 nmol/L
Total Plasma EAA Percent Change Relative to Baseline Values ([2]; 30 mPost ingestion of 2 g): 26.9%
increase in plasma lysine, times greater than the other condition ([2]; 30 mPost): 2.8 ×
Plasma Isoleucine Delta Change Relative to Baseline Values ([2]; 60 mPost ingestion of 2 g): -14.21 nmol/L
Plasma Isoleucine Percent Change Relative to Baseline Values ([2]; 60 mPost ingestion of 2 g): −20.1%
Plasma Lysine Delta Change Relative to Baseline Values ([2]; 60 mPost ingestion of 2 g): 41.31 nmol/L
Plasma Lysine Percent Change Relative to Baseline Values ([2]; 60 mPost ingestion of 2 g): 30.7%
Plasma Methionine Delta Change Relative to Baseline Values ([2]; 60 mPost ingestion of 2 g): 1.01 µM
Plasma Methionine Percent Change Relative to Baseline Values ([2]; 60 mPost ingestion of 2 g): 4.4%
Plasma Phenylalanine Delta Change Relative to Baseline Values ([2]; 60 mPost ingestion of 2 g): 2.02 nmol/L
Plasma Phenylalanine Percent Change Relative to Baseline Values ([2]; 60 mPost ingestion of 2 g): 3.4%
Plasma Threonine Delta Change Relative to Baseline Values ([2]; 60 mPost ingestion of 2 g): 6.11 µM
Plasma Tryptophan Delta Change Relative to Baseline Values ([2]; 60 mPost ingestion of 2 g): -5.10 nmol/L
Plasma Tryptophan Percent Change Relative to Baseline Values ([2]; 60 mPost ingestion of 2 g): −7.9%
Plasma Valine Delta Change Relative to Baseline Values ([2]; 60 mPost ingestion of 2 g): -52.63 nmol/L
Plasma Valine Percent Change Relative to Baseline Values ([2]; 60 mPost ingestion of 2 g): −14.1%
Total Plasma BCAA Delta Change Relative to Baseline Values ([2]; 60 mPost ingestion of 2 g): 26 µM
Total Plasma BCAA Percent Change Relative to Baseline Values ([2]; 60 mPost ingestion of 2 g): 4.3%
Total Plasma EAA Delta Change Relative to Baseline Values ([2]; 60 mPost ingestion of 2 g): 71.33 nmol/L
Total Plasma EAA Percent Change Relative to Baseline Values ([2]; 60 mPost ingestion of 2 g): 7.2%
increase in plasma lysine, times greater than the other condition ([2]; 60 mPost): 5.7 ×
Plasma Isoleucine Delta Change Relative to Baseline Values ([2]; 90 mPost ingestion of 2 g): -26.67 nmol/L
Plasma Isoleucine Percent Change Relative to Baseline Values ([2]; 90 mPost ingestion of 2 g): −37.7%
Plasma Lysine Delta Change Relative to Baseline Values ([2]; 90 mPost ingestion of 2 g): -25.31 nmol/L
Plasma Lysine Percent Change Relative to Baseline Values ([2]; 90 mPost ingestion of 2 g): −18.8%
Plasma Methionine Delta Change Relative to Baseline Values ([2]; 90 mPost ingestion of 2 g): -0.00173 µM
Plasma Methionine Percent Change Relative to Baseline Values ([2]; 90 mPost ingestion of 2 g): −7.5%
Plasma Phenylalanine Delta Change Relative to Baseline Values ([2]; 90 mPost ingestion of 2 g): -5.98 nmol/L
Plasma Phenylalanine Percent Change Relative to Baseline Values ([2]; 90 mPost ingestion of 2 g): −10.1%
Plasma Threonine Delta Change Relative to Baseline Values ([2]; 90 mPost ingestion of 2 g): -0.0034 µM
Plasma Threonine Percent Change Relative to Baseline Values ([2]; 90 mPost ingestion of 2 g): −3.2%
Plasma Tryptophan Delta Change Relative to Baseline Values ([2]; 90 mPost ingestion of 2 g): -6.60 nmol/L
Plasma Tryptophan Percent Change Relative to Baseline Values ([2]; 90 mPost ingestion of 2 g): −10.2%
Plasma Valine Delta Change Relative to Baseline Values ([2]; 90 mPost ingestion of 2 g): -79.42 nmol/L
Plasma Valine Percent Change Relative to Baseline Values ([2]; 90 mPost ingestion of 2 g): −21.3%
Total Plasma BCAA Delta Change Relative to Baseline Values ([2]; 90 mPost ingestion of 2 g): -0.07162 µM
Total Plasma BCAA Percent Change Relative to Baseline Values ([2]; 90 mPost ingestion of 2 g): −12.0%
Total Plasma EAA Delta Change Relative to Baseline Values ([2]; 90 mPost ingestion of 2 g): -114.65 nmol/L
Total Plasma EAA Percent Change Relative to Baseline Values ([2]; 90 mPost ingestion of 2 g): −11.6%
Plasma Isoleucine Delta Change Relative to Baseline Values ([2]; 120 mPost ingestion of 2 g): -24.37 nmol/L
Plasma Isoleucine Percent Change Relative to Baseline Values ([2]; 120 mPost ingestion of 2 g): −34.4%
Plasma Lysine Delta Change Relative to Baseline Values ([2]; 120 mPost ingestion of 2 g): 25.68 nmol/L
Plasma Lysine Percent Change Relative to Baseline Values ([2]; 120 mPost ingestion of 2 g): 19.1%
Plasma Methionine Delta Change Relative to Baseline Values ([2]; 120 mPost ingestion of 2 g): -0.00168 µM
Plasma Methionine Percent Change Relative to Baseline Values ([2]; 120 mPost ingestion of 2 g): −7.3%
Plasma Phenylalanine Delta Change Relative to Baseline Values ([2]; 120 mPost ingestion of 2 g): -1.89 nmol/L
Plasma Phenylalanine Percent Change Relative to Baseline Values ([2]; 120 mPost ingestion of 2 g): −3.2%
Plasma Threonine Delta Change Relative to Baseline Values ([2]; 120 mPost ingestion of 2 g): -0.00207 µM
Plasma Threonine Percent Change Relative to Baseline Values ([2]; 120 mPost ingestion of 2 g): −1.9%
Plasma Tryptophan Delta Change Relative to Baseline Values ([2]; 120 mPost ingestion of 2 g): -13.23 nmol/L
Plasma Tryptophan Percent Change Relative to Baseline Values ([2]; 120 mPost ingestion of 2 g): −20.5%
Plasma Valine Delta Change Relative to Baseline Values ([2]; 120 mPost ingestion of 2 g): -85.53 nmol/L
Plasma Valine Percent Change Relative to Baseline Values ([2]; 120 mPost ingestion of 2 g): −22.9%
Total Plasma BCAA Delta Change Relative to Baseline Values ([2]; 120 mPost ingestion of 2 g): -0.06614 µM
Total Plasma BCAA Percent Change Relative to Baseline Values ([2]; 120 mPost ingestion of 2 g): −11.1%
Total Plasma EAA Delta Change Relative to Baseline Values ([2]; 120 mPost ingestion of 2 g): -59.34 nmol/L
Total Plasma EAA Percent Change Relative to Baseline Values ([2]; 120 mPost ingestion of 2 g): −6.0%
